Columns and labels:
[1] = molecular target: dopamine transporter (hDAT) (Homo sapiens, UniProt Q01959); experiment: [3H]DA uptake inhibition in COS-7 cells expressing hDAT; format: cell-based
[2] = molecular target: norepinephrine transporter (hNET) (Homo sapiens, UniProt P23975); experiment: [3H]NE uptake inhibition in COS-7 cells expressing hNET; format: cell-based
norepinephrine transporter (hNET), sequence (P23975 whole entry): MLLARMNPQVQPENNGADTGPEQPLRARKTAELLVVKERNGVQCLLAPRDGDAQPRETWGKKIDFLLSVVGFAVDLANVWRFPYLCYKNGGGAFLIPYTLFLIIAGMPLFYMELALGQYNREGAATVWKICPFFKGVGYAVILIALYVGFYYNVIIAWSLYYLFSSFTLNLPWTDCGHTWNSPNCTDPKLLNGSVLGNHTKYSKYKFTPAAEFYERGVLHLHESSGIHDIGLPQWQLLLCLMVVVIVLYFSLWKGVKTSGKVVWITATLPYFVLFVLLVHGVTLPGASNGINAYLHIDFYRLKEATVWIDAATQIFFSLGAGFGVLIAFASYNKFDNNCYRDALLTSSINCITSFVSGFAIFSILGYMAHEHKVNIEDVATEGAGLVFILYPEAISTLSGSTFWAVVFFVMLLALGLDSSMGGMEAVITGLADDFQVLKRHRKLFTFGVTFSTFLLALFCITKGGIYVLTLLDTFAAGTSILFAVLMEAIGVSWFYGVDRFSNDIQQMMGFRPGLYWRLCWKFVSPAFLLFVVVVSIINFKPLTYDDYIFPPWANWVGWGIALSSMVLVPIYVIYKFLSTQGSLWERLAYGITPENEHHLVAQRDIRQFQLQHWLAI

dopamine transporter (hDAT), sequence (Q01959 whole entry): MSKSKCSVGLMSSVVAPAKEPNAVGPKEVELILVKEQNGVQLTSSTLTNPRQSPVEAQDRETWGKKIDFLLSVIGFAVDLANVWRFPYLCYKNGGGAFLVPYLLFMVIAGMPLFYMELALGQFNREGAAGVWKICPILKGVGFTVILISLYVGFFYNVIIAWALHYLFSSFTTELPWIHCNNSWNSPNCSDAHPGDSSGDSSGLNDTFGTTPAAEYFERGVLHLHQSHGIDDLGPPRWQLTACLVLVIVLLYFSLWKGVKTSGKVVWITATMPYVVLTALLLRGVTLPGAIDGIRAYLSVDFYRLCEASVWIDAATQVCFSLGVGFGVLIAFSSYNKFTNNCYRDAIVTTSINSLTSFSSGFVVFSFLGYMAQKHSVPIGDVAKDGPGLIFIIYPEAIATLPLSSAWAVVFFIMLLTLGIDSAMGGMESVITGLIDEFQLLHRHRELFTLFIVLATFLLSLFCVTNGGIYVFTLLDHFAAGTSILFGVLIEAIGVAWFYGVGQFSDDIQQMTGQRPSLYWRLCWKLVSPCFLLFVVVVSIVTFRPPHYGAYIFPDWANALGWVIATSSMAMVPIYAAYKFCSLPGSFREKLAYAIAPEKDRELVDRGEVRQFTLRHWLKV

SMILES: CC(N)CCc1ccccc1Cl (centres unmarked) [SK609]
- Ki [1]: 5.7 ± 1.3 µM
- Ki [2]: 0.57 ± 0.11 µM

From publication PMC6424628 (Neuropharmacology, 2019)
